Assay results published in patent US20240041764A1, “Sustained-Release Oral Fosamprenavir Formulation for Treatment of Reflux” (The Medical College of Wisconsin, Inc., priority 2022, published 2024).
“Also recorded” adds a separate entry of the source.

Key:
[1] = mice; cited from earlier work
[2] = test system: LPR mouse model (pepsin-mediated laryngeal damage); test: in vivo LPR mouse model: mechanical injury plus laryngeal pepsin instillation, H&E histology; conditions: for protection against pepsin-mediated laryngeal damage (histology): 0.3 mg/ml pepsin pH7, 4 weeks
Source text: Three replicate animals per treatment condition were anticipated to suffice for verification of reproducibility in each experiment without excessive use of animal life. The three mice were randomly allocated to treatment groups. No data were excluded from analysis.
Six-week-old female Jackson A/J mice (Jackson Laboratory, Bar Harbor, ME) were fed D-62 powdered Wattenberg diet, 2 g/mouse/day^95 and allowed to acclimate for one week upon arrival prior to experiments. In accord with previously established methods for modeling aerodigestive tract damage attributed to GERD and LPR,^1,95-99 mechanical injury applied during the first two weeks of a four-week treatment course was used to predispose the laryngeal mucosa to chemical injury by pepsin/acid applied throughout the four weeks. […] Briefly, anesthetized mice were suspended by upper teeth on a slanted board under an operating microscope.
In a preliminary experiment to validate the LPR mouse model (i.e. laryngeal damage by pepsin at neutral and acidic pH), 20 μl saline (solvent control) or 0.3 mg/ml pepsin at pH7.0 or 4.0 were provided to mice (n=3) by laryngeal instillation at 24, 48, and 72 hours after mechanical injury during weeks 1 and 2 (FIG. 6); laryngeal instillation without wounding (3 days/week) continued during weeks 3 and 4. […] Mice were sacrificed at conclusion of the fourth week.
To test the protective effect of HIV protease inhibitors on pepsin-mediated damage in vivo, inhibitors were delivered by aerosol or gavage concurrently with wounding (days 2, 8) and solvent/pepsin instillation (days 3-5, 9-11, 16-18 and 23-25). Aerosol or gavage was provided on days 1-5, 8-12, 15-19, and 22-25, and mice sacrificed day 26. Mice were anesthetized with isoflurane (3% in 2.5LPM, 3-5 minutes prior to procedures) as opposed to Avertin due to frequency. […] Aerosol was generated as described^100. Briefly, a 10 ml suspension of drug in ethanol was placed in the baffle, such that the concentration would remain constant at the equilibrium solubility. Droplets of ethanol containing dissolved drug were generated by an ultrasonic atomizer (nominal frequency 1.7 MHz) and entrained by air at a flow rate of 0.5 LPM with a custom-built glass baffle (UMN Department of Chemistry Glass Shop). The aerosol cloud was then passed through a cylindrical drying column containing an annular ring of charcoal. The ethanol was removed and the emanating dry aerosol particles of pure drug were then directed into the exposure chamber. The mass deposited on filters was measured gravimetrically and total output rate (mg/min) was determined. The aerosol concentration (mass/volume of air) was calculated by dividing the total output rate by the air flow rate (0.5 LPM). The inhaled mass of drug (Minh) for each mouse was defined as Minh=[Aerosol]*RMV*t, where Aerosol is the aerosol concentration of drug, RMV is the respiratory minute volume of the mice (0.025 L/min), and t is the aerosol exposure time. […] Actual mass deposited was not determined but anticipated to be 10% of inhaled mass (the deposition fraction of […] aerosol particles in mice).
Tissues were collected, fixed in paraformaldehyde, embedded in paraffin and 4 um sections stained with hematoxylin and eosin (H&E) via automated stainer. Slides were reviewed by a board-certified pathologist (JM) blinded to treatment groups.

[3] = prodrug relative to amprenavir; cited from earlier work
[4] = in vivo; cited from earlier work
porcine pepsin = target: T1, porcine pepsin (Sus scrofa, UniProt P00791); test: peptic activity assay, fluorescence polarization with casein-Alexa647; type: biochemical
T1 construct: purchased Worthington Biochemical Corporation
T1 sequence (P00791 60-385): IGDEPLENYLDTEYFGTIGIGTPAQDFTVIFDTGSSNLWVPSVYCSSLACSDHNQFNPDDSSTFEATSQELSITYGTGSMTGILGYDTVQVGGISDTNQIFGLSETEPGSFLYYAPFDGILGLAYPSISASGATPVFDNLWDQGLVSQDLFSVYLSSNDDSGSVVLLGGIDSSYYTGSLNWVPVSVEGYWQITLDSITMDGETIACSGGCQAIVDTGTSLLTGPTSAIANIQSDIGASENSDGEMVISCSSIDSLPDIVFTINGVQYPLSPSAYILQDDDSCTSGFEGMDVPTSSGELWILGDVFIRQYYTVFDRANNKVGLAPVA
Protocol: To examine whether HIV protease inhibitors bound and inhibited pepsin, we developed assays based on fluorescence polarization which measures size-dependent molecular rotation thereby permitting detection of degradation, association and dissociation events^80. A competitive binding assay was designed employing pepstatin, an inhibitor of sub-nanomolar affinity^81. Pepstatin-Alexa647 was synthesized by dissolving 1 mg pepstatin A (Sigma-Aldrich) in a 50:50 mixture of dimethylformamide (DMF) and dimethylsulfoxide (DMS) followed by the addition of N,N,N′,N′-Tetramethyl-O—(N-succinimidyl)uronium tetrafluoroborate (0.6 mg) and trimethylamine (10 μL) DMF. The mixture was stirred for 1 hour, after which 1 mg Alexa Fluor 647 Cadaverine, Disodium Salt (ThermoFisher Scientific) was added. After 2 hours, the solvents were evaporated under high vacuum (35° C.) and residue partially dissolved in 10% methanol and transferred onto a C18 cartridge (Waters Corporation, Milford, MA). Increasing percentages of methanol were used for the elution. […] An enzymatic inhibition assay was designed using casein substrate.^82 Bovine alpha casein (Sigma-Aldrich, St. Louis, MO) was labeled with Alexa Fluor 647 Carboxylic Acid, Succinimidyl Ester (ThermoFisher Scientific, Waltham, MA) as described.^82 Briefly, the two were combined at 2.5 ug/mg label to protein ratio in 0.1M sodium bicarbonate for 15 minutes and labeled casein was separated from unbound label in a Sephadex G-25 (Sigma-Aldrich) column comprised of 90×5 mm packed beads in a glass Pasteur pipette, eluted with dPBS pH7.4 (ThermoFisher Scientific). The fast-moving band (casein-bound fluorophore) was collected in ˜0.4 ml volume. Concentration of resultant probe (casein-Alexa647 in PBS-azide) was estimated via spectrophotometry using Beer's law (Implen Nanophotometer, Implen, Inc. Westlake Village, CA).
(§1) Assays were optimized using ranges of 0.3-1000 μM unlabeled pepstatin, 100-500 nM pepstatin-Alexa647 or casein-Alexa647 probe, 0.003-3 U/μl porcine pepsin (Worthington Biochemical Corporation, Lakewood, NJ), and 5-37.5% DMSO (HIV protease inhibitor diluent) in 0.1 M HCl, pH 1 with 0.01% v/v Tween-20 in 20 μl volumes in 384-well black optical plates (Nunc, Roskilde, DK) and read on a BioTek Cytation 5 (BioTek Instruments, Winooski, VT) with far red FP filter cube (excitation/emission 620/680 nm). Unlabeled pepstatin dose-response curves were used to ensure that the assays were responsive to pepsin inhibition. […] Assays were performed twice with triplicate reactions read for five minutes and mean mP plotted against probe concentration (binding assay) or read at <2 minutes intervals over 30 minutes with mean mP of plotted over time (activity assay). Half maximal inhibitory concentration (IC50) of inhibitors were calculated from kinetic traces analyzed using an online tool (https://icekat.herokuapp.com/icekat)^83. mP was normalized to blank (absent inhibitor) to derive percent bound or activity.

[5] = solubility when preparing co-crystallization solutions; type: physicochemical; conditions: saturated solution in DMSO for co-crystallization; CryoSol SM2 chosen instead
Protocol: Supernatant of saturated saquinivar solution in SM2 was combined with pepsin at 5% f.c. (v/v). Crystallization conditions were optimized by screening 200 mg/ml pepsin in the Salt RX screen (Hampton Research, Viejo, CA). […] Diffraction quality crystals (triangular bi-pyramids, approximately 200×100×100 μm) formed after 2-7 days from hanging drops of 2 ul pepsin (180-210 mg/ml) and 1 ul microseed solution serially diluted 10-100× above 3-4M ammonium chloride and 0.1M sodium acetate trihydrate pH4.6. Crystals were cryoprotected by 30% glucose, 5M ammonium chloride and 0.1 M sodium acetate trihydrate pH4.6 and plunged in liquid nitrogen. Co-crystallization with saquinavir was performed in 0.1M acetic acid rather than sodium acetate trihydrate as this permitted large crystal formation without a microseed; crystals were cryoprotected by 30% w/v glucose, 5M ammonium chloride and 0.1 M sodium acetate trihydrate pH 4.6 and plunged in liquid nitrogen.

porcine pepsin A = target: T2, porcine pepsin A (Sus scrofa, UniProt P00791); test: competitive binding assay, fluorescence polarization with pepstatin-Alexa647; conditions: 100 nM probe, 0.03 U/ul porcine pepsin A, 37.5% DMSO, 0.1 M HCl pH 1
T2 construct: purchased Worthington Biochemical Corporation
T2 sequence (P00791 60-385): as above
Protocol: To examine whether HIV protease inhibitors bound and inhibited pepsin, we developed assays based on fluorescence polarization which measures size-dependent molecular rotation thereby permitting detection of degradation, association and dissociation events^80. A competitive binding assay was designed employing pepstatin, an inhibitor of sub-nanomolar affinity^81. Pepstatin-Alexa647 was synthesized by dissolving 1 mg pepstatin A (Sigma-Aldrich) in a 50:50 mixture of dimethylformamide (DMF) and dimethylsulfoxide (DMS) followed by the addition of N,N,N′,N′-Tetramethyl-O—(N-succinimidyl)uronium tetrafluoroborate (0.6 mg) and trimethylamine (10 μL) DMF. The mixture was stirred for 1 hour, after which 1 mg Alexa Fluor 647 Cadaverine, Disodium Salt (ThermoFisher Scientific) was added. After 2 hours, the solvents were evaporated under high vacuum (35° C.) and residue partially dissolved in 10% methanol and transferred onto a C18 cartridge (Waters Corporation, Milford, MA). Increasing percentages of methanol were used for the elution. Pepstatin-Alexa647 eluted at 45% methanol. An enzymatic inhibition assay was designed using casein substrate.^82 Bovine alpha casein (Sigma-Aldrich, St. Louis, MO) was labeled with Alexa Fluor 647 Carboxylic Acid, Succinimidyl Ester (ThermoFisher Scientific, Waltham, MA) as described.^82 Briefly, the two were combined at 2.5 ug/mg label to protein ratio in 0.1M sodium bicarbonate for 15 minutes and labeled casein was separated from unbound label in a Sephadex G-25 (Sigma-Aldrich) column comprised of 90×5 mm packed beads in a glass Pasteur pipette, eluted with dPBS pH7.4 (ThermoFisher Scientific). The fast-moving band (casein-bound fluorophore) was collected in ˜0.4 ml volume. […]
as §1, with “nm).” for “nm). Unlabeled pepstatin dose-response curves were used to ensure that the assays were responsive to pepsin inhibition.”

Row | Compound | pharmacokinetics [1] | laryngeal histology, drug with saline (solvent), no pepsin ([2]; aerosol) | protection against pepsin-mediated laryngeal damage (histology) ([2]; aerosol, inhaled mass 0.93 mg/kg/day fosamprenavir, 12 mg/kg/day darunavir) | laryngeal histology, drug with saline (solvent), no pepsin ([2]; gavage) | protection against pepsin-mediated laryngeal damage (histology) ([2]; gavage, 20 mg/kg/day fosamprenavir (Lexiva), 8.6 mg/kg/day darunavir (Prezista)) | protection against pepsin-mediated laryngeal damage (histology) ([2]; gavage, 20 mg/kg/day fosamprenavir (Lexiva), 8.6 mg/kg/day darunavir (Prezista), listed as Fosamprenavir) | protection against pepsin-mediated laryngeal damage (histology) ([2]; gavage, 20 mg/kg/day fosamprenavir (Lexiva), 8.6 mg/kg/day darunavir (Prezista), listed as Lexiva) | laryngeal histology, drug with saline (solvent), no pepsin ([2]; gavage, listed as Lexiva) | bioavailability [3] | tolerability [4] | inhibited pepsin (peptic activity) (porcine pepsin; 200 nM probe, 0.01 U/μL pepsin, 5% DMSO, 0.1 M HCl pH 1) | IC50 for pepsin (porcine pepsin; in vitro binding and inhibition assays, IC50 from kinetic traces) | solubility [5] | bound pepsin (competitive binding) (porcine pepsin A) | side effects [4]
1 | CC(C)CN(C[C@@H](OP(=O)(O)O)[C@H](Cc1ccccc1)NC(=O)O[C@H]1CCOC1)S(=O)(=O)c1ccc(N)cc1 [fosamprenavir, [(3S)-oxolan-3-yl] N-[(2S,3R)-4-[(4-aminophenyl)sulfonyl-(2-methylpropyl)amino]-1-phenyl-3-phosphonooxybutan-2-yl]carbamate] | excellent pharmacokinetics | normal histology | prevented pepsin-mediated laryngeal injury; also recorded: protected against pepsin-mediated laryngeal damage | normal histology | prevented pepsin-mediated laryngeal damage | prevented pepsin-mediated laryngeal damage; also recorded: protected against pepsin-mediated laryngeal damage | prevents pepsin-mediated airway epithelial damage | Normal-appearing respiratory epithelium | improved bioavailability | favorable tolerability |  |  |  |  | 
2 | CC(C)(C)NC(=O)[C@@H]1C[C@@H]2CCCC[C@@H]2CN1C[C@@H](O)[C@H](Cc1ccccc1)NC(=O)[C@H](CC(N)=O)NC(=O)c1ccc2ccccc2n1 [saquinavir, (2S)-N-[(2S,3R)-4-[(3S,4aS,8aS)-3-(tert-butylcarbamoyl)-3,4,4a,5,6,7,8,8a-octahydro-1H-isoquinolin-2-yl]-3-hydroxy-1-phenylbutan-2-yl]-2-(quinoline-2-carbonylamino)butanediamide] |  |  |  |  |  |  |  |  |  |  | low micromolar | low micromolar range | poor solubility | low micromolar | QT prolongation, heart block, high blood lipids and liver problems
